Results on 23 compounds are retold here after ChEMBL document CHEMBL4390657, “Discovery of arylbenzylamines as PDE4 inhibitors with potential neuroprotective effect” (Eur J Med Chem, 2019).

By pIC50 is commonly meant the IC50 on a negative log10 scale, so that one unit is a factor of ten. Low values mean a high IC50, high ones a low IC50. For orientation: clearance means the rate of elimination divided by the concentration. Lower therefore signals a low capacity for elimination. What is called MRT inf is a mean duration of stay, worked out from the concentration-time curve. By AUC(0-t) is commonly meant exposure summed from dosing to a finite time, without extrapolation to infinity. Lower therefore signals low exposure. In general, AUC(0-inf) refers to total exposure, with the tail of the curve extrapolated. A low value points to low exposure. A word on the Cmax: it is the maximum level reached in the sampled fluid or tissue. In general, half-life refers to the time needed for the level to fall by half in the phase considered. High values mean slow decline, low ones rapid decline. Usually Tmax stands for the time at which the peak concentration occurs. The bioavailability is the share of a dose that reaches the circulation, judged against a reference dose that is usually intravenous.

SMILES strings stand for the structures. pIC50: −log10 of the molar value. The source made the active and inactive calls.

Data set [1] deals with T1, 3',5'-cyclic-AMP phosphodiesterase 4B (Homo sapiens, UniProt Q07343). The experiment in a line: Inhibition of human full length N-terminal GST-tagged PDE4B1 expressed in baculovirus infected Sf9 cells using cAMP as substrate incubated for 1 hr by fluorescence polarization assay. On the technique in general: In fluorescence polarisation assays a small probe gives low polarisation when free and higher when bound to something large.
T1 sequence (Q07343 whole entry): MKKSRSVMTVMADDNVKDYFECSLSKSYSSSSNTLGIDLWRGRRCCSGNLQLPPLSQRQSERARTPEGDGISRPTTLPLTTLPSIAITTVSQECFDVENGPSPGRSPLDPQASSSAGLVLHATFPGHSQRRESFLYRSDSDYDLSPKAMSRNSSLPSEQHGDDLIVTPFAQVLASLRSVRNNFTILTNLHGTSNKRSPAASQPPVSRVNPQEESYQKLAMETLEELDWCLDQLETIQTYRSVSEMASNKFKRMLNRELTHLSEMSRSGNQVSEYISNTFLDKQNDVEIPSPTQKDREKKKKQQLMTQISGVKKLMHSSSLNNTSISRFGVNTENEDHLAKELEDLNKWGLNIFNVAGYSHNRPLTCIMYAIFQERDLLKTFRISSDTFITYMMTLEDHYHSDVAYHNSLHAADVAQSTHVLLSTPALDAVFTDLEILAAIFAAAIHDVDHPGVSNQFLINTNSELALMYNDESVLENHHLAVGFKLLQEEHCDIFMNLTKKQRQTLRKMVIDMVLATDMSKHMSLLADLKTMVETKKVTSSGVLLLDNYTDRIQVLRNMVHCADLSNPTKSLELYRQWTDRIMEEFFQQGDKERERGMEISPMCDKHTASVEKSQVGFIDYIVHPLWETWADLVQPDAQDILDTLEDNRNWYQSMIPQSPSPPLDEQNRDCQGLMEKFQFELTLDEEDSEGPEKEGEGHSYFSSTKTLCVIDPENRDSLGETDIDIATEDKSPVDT

Data set [2] is described as follows: Inhibition of human N-terminal GST-tagged PDE4D7 (2 to 748 residues) expressed in baculovirus infected Sf9 cells using cAMP as substrate after 1 hr by fluorescence polarization assay.
Data set [3] has as its target T1, 3',5'-cyclic-AMP phosphodiesterase 4B. The data set can be described thus: Inhibition of human full length N-terminal GST-tagged PDE4B1 expressed in baculovirus infected Sf9 cells using cAMP as substrate incubated for 1 hr by fluorescence polarization assay relative to control.
Data set [4] has as its system SH-SY5Y. The data set can be described thus: Cytotoxicity against human SH-SY5Y cells assessed as reduction in cell viability at 3.1 to 50 uM incubated for 48 hrs by MTT assay. The data set is classed as cell-based.
The subject of data set [5] is SH-SY5Y. The experiment in a line: Neuroprotective activity in human SH-SY5Y cells assessed as reduction in MPP+ induced cytotoxicity at 30 to 60 uM preincubated for 1 hr followed by MPP+ addition and measured after 48 hrs by MTT assay. The data set is classed as functional, cell-based. (Tetrazolium assays rely on reduction of a dye to a coloured formazan, in cell work by metabolically active cells.)

Data set [6] has as its system SH-SY5Y. The experiment in a line: Neuroprotective activity against MPP+-induced cell apoptosis in human SH-SY5Y cells assessed as effect on morphological changes at 30 to 60 uM preincubated for 1 hr followed by MPP+ addition and measured after 48 hrs by PI staining based inverse fluorescent microscopic analysis. The class given is functional.
Data set [7] in a line: Clearance in Sprague-Dawley rat at 2 mg/kg, iv by measured up to 24 hrs by LC-MS /MS analysis. The class given is ADME, organism-based. The note with it: in vivo.
The nature of data set [8]: Volume of distribution at steady state in Sprague-Dawley rat at 2 mg/kg, iv by measured up to 24 hrs by LC-MS /MS analysis. The data set is classed as ADME, organism-based. To be noted: in vivo, read-out: Vdss.
Data set [9] can be described thus: Mean residence time (0 to infinity) in Sprague-Dawley rat at 2 mg/kg, iv by measured up to 24 hrs by LC-MS /MS analysis. The data set is classed as ADME, organism-based. To be noted: in vivo.
Data set [10] is described as follows: AUC (0 to t) in Sprague-Dawley rat at 2 mg/kg, iv by measured up to 24 hrs by LC-MS /MS analysis. The class given is ADME, organism-based. Set-up: dose 2 mg/kg, time < 24 hr, route intravenous. The note with it: in vivo.
Data set [11] can be described thus: AUC (0 to infinity) in Sprague-Dawley rat at 2 mg/kg, iv by measured up to 24 hrs by LC-MS /MS analysis. Set-up: dose 2 mg/kg, time infinity, route intravenous. The class given is ADME, organism-based. The note with it: in vivo.
Data set [12] can be described thus: Cmax in Sprague-Dawley rat at 2 mg/kg, iv by measured up to 24 hrs by LC-MS /MS analysis. The class given is ADME, organism-based. Set-up: dose 2 mg/kg, route intravenous. The note with it: in vivo.
A short description of data set [13]: Half life in Sprague-Dawley rat at 2 mg/kg, iv by measured up to 24 hrs by LC-MS /MS analysis. The class given is ADME, organism-based. The note with it: in vivo.
Data set [14] is described as follows: Tmax in Sprague-Dawley rat at 2 mg/kg, iv by measured up to 24 hrs by LC-MS /MS analysis. The data set is classed as ADME, organism-based. The note with it: in vivo.
Data set [15] can be described thus: Mean residence time (0 to infinity) in Sprague-Dawley rat at 10 mg/kg, po by measured up to 24 hrs by LC-MS /MS analysis. The class given is ADME, organism-based. The note with it: in vivo.
The nature of data set [16]: AUC (0 to t) in Sprague-Dawley rat at 10 mg/kg, po by measured up to 24 hrs by LC-MS /MS analysis. The data set is classed as ADME, organism-based. Set-up: time < 24 hr, dose 10 mg/kg, route oral. To be noted: in vivo.
Data set [17] in a line: AUC (0 to infinity) in Sprague-Dawley rat at 10 mg/kg, po by measured up to 24 hrs by LC-MS /MS analysis. The class given is ADME, organism-based. Set-up: dose 10 mg/kg, time infinity, route oral. To be noted: in vivo.
Data set [18] is described as follows: Half life in Sprague-Dawley rat at 10 mg/kg, po by measured up to 24 hrs by LC-MS /MS analysis. The data set is classed as ADME, organism-based. To be noted: in vivo.
Data set [19] is described as follows: Tmax in Sprague-Dawley rat at 10 mg/kg, po by measured up to 24 hrs by LC-MS /MS analysis. The data set is classed as ADME, organism-based. The note with it: in vivo.
Data set [20] can be described thus: Oral bioavailability in Sprague-Dawley rat at 10 mg/kg by measured up to 24 hrs by LC-MS /MS analysis. The class given is ADME, organism-based. The note with it: in vivo.
Data set [21] in a line: Cmax in Sprague-Dawley rat at 10 mg/kg, po by measured up to 24 hrs by LC-MS /MS analysis. The data set is classed as ADME, organism-based. Set-up: dose 10 mg/kg, route oral. To be noted: in vivo.

Consider `COc1cccc(-c2cc(CNc3cccnc3)ccc2OC)c1`, for which the values for the pIC50 in [1] and in data set [2] were 6.17 and 5.92, respectively. The Imax in [3] was 90%. In addition, the Activity entry in the data set with SH-SY5Y [4] is reported as “Non-Toxic”. Besides, the result in the data set with SH-SY5Y [5] and with SH-SY5Y [6] was Active.
With `COc1ccc(C2CNC(=O)C2)cc1OC1CCCC1` (centres undefined) [ROLIPRAM], the negative logarithm of the IC50 (pIC50) in data set [2] was 6.52.
Take `COc1ccc(CNc2cccnc2)cc1-c1cccc(F)c1`: the pIC50 in [1] was 6.47; in data set [2], 6.42. The same compound showed an Imax in [3] of 93%. Moreover, the Activity result in the data set with SH-SY5Y [4] is “Non-Toxic”. Moreover, the result in the data set with SH-SY5Y [5] and in the data set with SH-SY5Y [6] was Active. In addition, in data set [7], the clearance is 103 mL/min/kg. The Vd in data set [8] was found to be 4.35 L/kg. The mean residence time MRT inf in data set [9] was 0.69 h; in [15], 7.61 h. The AUC(0-t) at 24 h came to 325 ng·h/mL in data set [10] and 84.4 ng·h/mL in [16]. Further, the AUC(0-inf) came out at 327 ng·h/mL in data set [11] and 134 ng·h/mL in data set [17]. Besides, the values for the highest concentration (Cmax) in data set [12] and in data set [21] were 701 ng/mL and 14.7 ng/mL, respectively. Further, the half-life in [13] was 1.26 h; in data set [18], 4.32 h. Moreover, the results for the Tmax in data set [14] and in data set [19] were 4.8 min and 3.33 h, respectively. The compound also yielded a bioavailability in [20] of 8.2%.
As for `COc1ccc(NCc2ccc(OC)c(-c3cccc(Cl)c3)c2)cn1`, the pIC50 in [1] and in [2] was less than 5.00 in each case.
Consider `Fc1cccc(-c2cc(CNc3cccnc3)cc3c2OCC3)c1`, for which the figures for the pIC50 in data set [1] and in data set [2] were 6.10 and 5.89, respectively.
`FC(F)Oc1ccc(CNc2cccnc2)cc1-c1cccc(Cl)c1`: the pIC50 in data set [1] and in [2] was less than 5.00 throughout.
Turning to `COc1ccc(CN[C@H](C(=O)O)C(C)C)cc1-c1cccc(Cl)c1`, the pIC50 in data set [1] and in data set [2] was less than 4.00 in each case.
`COc1ccc(CNc2ccc(Cl)cc2)cc1-c1cccc(Cl)c1`: the pIC50 in [1] and in data set [2] was less than 5.00 throughout.
On to `COc1ccc(CN[C@@H](Cc2ccccc2)C(=O)O)cc1-c1cccc(Cl)c1`, for which the pIC50 in data set [1] and in [2] was less than 5.00 each time.
As for `COc1ccc(CN2CCOCC2)cc1-c1cccc(Cl)c1`, the pIC50 was 5.46 in data set [1] and 5.74 in data set [2].
On to `COc1ccc(CN[C@@H](Cc2c[nH]c3ccccc23)C(=O)O)cc1-c1cccc(Cl)c1`, for which the pIC50 in data set [1] and in [2] was less than 4.00 in each case.
`COc1ccc(CNc2ccc(F)cc2)cc1-c1cccc(Cl)c1`: the pIC50 in data set [1] and in [2] was less than 5.00 throughout.
In the case of `O=C(Nc1ccccc1Cl)c1ccc(OC(F)F)c(OCC2CC2)c1`, the pIC50 in data set [1] was 6.77; in [2] it was 7.40.
For `COc1ccc(CNc2ccccn2)cc1-c1cccc(Cl)c1`, in that order: less than 5.00 and less than 5.00.
`COc1ccc(NCc2ccc(OC)c(-c3cccc(Cl)c3)c2)cc1`: the pIC50 in data set [1] and in data set [2] was less than 5.00 in each case.
With `COc1ccc(CN2CCOCC2)cc1-c1cccc(F)c1`, the pIC50 in data set [1] was 5.43; in data set [2], 5.68.
Consider `Clc1cccc(-c2cc(CNc3cccnc3)cc3c2OCC3)c1`, for which the negative-log IC50 (pIC50) in [1] was 6.03; in [2] it was 5.88.
Take `COc1ccc(CN2CCCC(C)C2)cc1-c1cccc(Cl)c1` (centres undefined): the negative logarithm of the IC50 (pIC50) in data set [1] and in data set [2] was less than 5.00 in each case.
As to `FC(F)Oc1ccc(CN2CCOCC2)cc1-c1cccc(Cl)c1`, the figures for the pIC50 in [1] and in [2] were 5.39 and 5.68, respectively.
For `COc1ccc(CNc2cccc(N(C)C)c2)cc1-c1cccc(Cl)c1`, in that order: less than 4.00 and less than 4.00.
For `COc1ccc(CN2CCC(O)CC2)cc1-c1cccc(Cl)c1`, in that order: less than 5.00 and less than 5.00.
For `COC(=O)c1ccc(NCc2ccc(OC)c(-c3cccc(Cl)c3)c2)cc1`, in that order: less than 5.00 and less than 5.00.
As to `COc1ccc(CNc2cccnc2)cc1-c1cccc(Cl)c1`, the pIC50 is 5.64 in data set [1] and 5.92 in data set [2]. In data set [3], the Imax is 100%.
